Laboratory results published in patent US20250163009A1, “BENZOTHIA(DIA)ZEPINE COMPOUNDS FOR TREATMENT OF HBV AND HDV” (Assembly Biosciences, Inc., priority 2022, published 2025).

Tested on: HBV
Experiment: HepG2-NTCP infection protocol, HBeAg quantification by ECL-ELISA
Type: cell-based
Conditions: HepG2-NTCP cells infected with HBV at MOI 50, compound 24 hours, then 72 hours, HBeAg in supernatant
Protocol: HepG2 cells expressing the sodium taurocholate cotransporting polypeptide (HepG2-NTCP) were maintained in culture using HepG2-NTCP growth medium (DMEM (HyClone, Cat #SH30243.02) supplemented with 10% FBS, 150 μg/mL G418 (Alfa Aesar, Cat #J62671), 50 U/mL penicillin-streptomycin (Invitrogen, Cat #15140-122), and 0.5 μg/mL blasticidin (Sigma, Cat #15205)). Prior to infection, the cells were washed twice with 1×DPBS (Invitrogen, Cat #14190-136) and treated with 3 mL of 0.05% trypsin (Invitrogen, Cat #25200-056) to dissociate the cells. Following dissociation, 10 mL of HepG2-NTCP growth medium was added to the cells to neutralize the trypsin and the cells were then centrifuged at 1,300 rpm for 5 minutes. Following centrifugation, the cells were resuspended in 10 mL of HepG2-NTCP growth medium, counted, and then centrifuged at 1,300 rpm for 5 minutes. The cell pellet was resuspended in DMEM supplemented with 5% FBS, 50 U/mL penicillin-streptomycin, 4% PEG-8000 (Hamilton Research, Cat #HR2-515), and 1% DMSO (Sigma, Cat #D4540) to a density of 5.6×10^5 cells/mL and infected with HBV at an MOI of 50. Immediately after infection, 90 μL of the cell/HBV mixture was added to a 96-well plate containing 10 μL of compound and incubated at 37° C. for 24 hours (2% final DMSO concentration). After the incubation, the infection media was removed and replaced with DMEM supplemented with 5% FBS, 50 U/mL penicillin-streptomycin, and 1% DMSO and incubated for an additional 72 hours. At the end of the incubation, the plates were spun at 1,800 rpm for 8 minutes and the supernatant was removed for HBeAg quantification using electrochemiluminescence enzyme-linked immunosorbent assays (ECL-ELISA).
To conduct the HBeAg ECL-ELISA, Lumitrack high-binding 96-well plates (Greiner, Cat #655074) were treated with 625 ng/mL HBeAg mAb (Biocheck, Cat #70426) in 1×DPBS for 2 hours at 25° C. with shaking. The HBeAg mAb solution was then removed and the plates treated with 1×DPBS containing 0.5% bovine serum albumin (BSA) (Sigma, Cat #A7030-100 g) for 2 hours at 25° C. with shaking. The HBeAg-coated plates were then washed 4 times with 1×DPBS containing 0.05% Tween 20 (DPBS-T) (Thermo Fisher Scientific, Cat #J61544-K2). Following the wash, 90 μL of HRP-conjugated antibody (Fitzgerald, Cat #61-H10K), diluted 1:8,000 in 1×DPBS-T containing 0.5% BSA, was added to the HBeAg-coated plates along with 10 μL of sample. The plates were then incubated for 2 hours at 25° C. with shaking. Following the incubation, the sample was then removed and 200 μL of 1×PBS-T was added and the plates were incubated for 10 minutes at 25° C. with shaking. The plates were then washed 6 times with 1×PBS-T and blotted dry. 80 μL of ECL substrate (Millipore, Cat #WBKLS0500) was then added to the plate and the luminescence was measured using a Tecan M1000 Pro plate reader.

SMILES	EC50 (Hepatitis B virus)	EC50
CCCC[C@H]1CN([C@@H]2CCN(C)C2)c2cc(SC)c(O/C=C(\F)C(=O)O)cc2S(=O)(=O)N1C (relative stereo) [Example 54]	1000 to 5000 nM	
CCCCC1CN(C2CCC(F)(F)CC2)c2cc(SC)c(O/C=C(\F)C(=O)O)cc2S(=O)(=O)N1C (single isomer, unassigned) [Example 2a]		< 100 nM
CCCCC1CN(C2CCC(F)(F)CC2)c2cc(SC)c(O/C=C(\F)C(=O)O)cc2S(=O)(=O)N1C (single isomer, unassigned) [Example 2b]		100 to 1000 nM
CCCC[C@H]1CN(C2CCN(C)C2)c2cc(SC)c(O/C=C(\F)C(=O)O)cc2S(=O)(=O)N1C (stereo in doubt) [Example 55]	1000 to 5000 nM	
CCCCC1CN(C2CCC(F)(F)CC2)c2cc(SC)c(O/C=C(\F)C(=O)O)cc2S(=O)(=O)N1C (stereo not drawn) [Example 2, (Z)-3-((3-butyl-5-(4,4-difluorocyclohexyl)-2-methyl-7-(methylthio)-1,1-dioxido-2,3,4,5-tetrahydrobenzo[f][1,2,5]thiadiazepin-8-yl)oxy)-2-fluoroacrylic acid]	< 100 nM	
CCCCC1CN(C2CCC(F)(F)CC2)c2cc(SC)c(O/C=C/C(=O)O)cc2S(=O)(=O)N1C (stereo not drawn) [Example 3]	< 100 nM	
CCCCC1CN(c2cccnc2)c2cc(SC)c(O/C=C/C(=O)O)cc2S(=O)(=O)N1C (stereo not drawn) [Example 4]	1000 to 5000 nM	
CCCCC1CN(c2ccccn2)c2cc(SC)c(O/C=C/C(=O)O)cc2S(=O)(=O)N1C (stereo not drawn) [Example 5]	100 to 1000 nM	
CCCCC1CN(c2ccc(N3CCCC3)cc2)c2cc(SC)c(O/C=C/C(=O)O)cc2S(=O)(=O)N1C (stereo not drawn) [Example 8]	< 100 nM	
C#Cc1ccc(N2CC(CCCC)N(C)S(=O)(=O)c3cc(O/C=C/C(=O)O)c(SC)cc32)cc1 (stereo not drawn) [Example 9]	< 100 nM	
CCCCC1CN(Cc2ccc(F)cc2)c2cc(SC)c(O/C=C(\F)C(=O)O)cc2S(=O)(=O)N1C (stereo not drawn) [Example 10]	< 100 nM	
CCCCC1CN(c2ccc(N3CCCC3)cc2)c2cc(SC)c(O/C=C(\F)C(=O)O)cc2S(=O)(=O)N1C (stereo not drawn) [Example 11]	< 100 nM	
CCCCC1CN(Cc2ccc(F)cc2)c2cc(SC)c(O/C=C(\F)C(=O)OCC)cc2S(=O)(=O)N1C (stereo not drawn) [Example 12]	100 to 1000 nM	
CCCCC1CN(Cc2ccc(SC)cc2)c2cc(SC)c(O/C=C(\F)C(=O)OCC)cc2S(=O)(=O)N1C (stereo not drawn) [Example 13]	100 to 1000 nM	
CCCCC1CN(C2CCCC2)c2cc(SC)c(O/C=C/C(=O)O)cc2S(=O)(=O)N1C (stereo not drawn) [Example 14]	100 to 1000 nM	
CCCCC1CN(Cc2ccccc2)c2cc(SC)c(O/C=C/C(=O)O)cc2S(=O)(=O)N1C (stereo not drawn) [Example 15]	100 to 1000 nM	
CCCCC1CN(C2CCCCC2)c2cc(SC)c(O/C=C(\F)C(=O)O)cc2S(=O)(=O)N1C (stereo not drawn) [Example 16]	< 100 nM	
CCCCC1CN(Cc2ccc(SC)cc2)c2cc(SC)c(O/C=C(\F)C(=O)O)cc2S(=O)(=O)N1C (stereo not drawn) [Example 17]	< 100 nM	
CCCCC1CN(C2CCC(OC)CC2)c2cc(SC)c(O/C=C(\F)C(=O)OCC)cc2S(=O)(=O)N1C (stereo not drawn) [Example 18]	< 100 nM	
CCCCC1CN(C2CCOCC2)c2cc(SC)c(O/C=C(\F)C(=O)OCC)cc2S(=O)(=O)N1C (stereo not drawn) [Example 19]	100 to 1000 nM	
CCCCC1CN(c2ncccn2)c2cc(SC)c(O/C=C(\F)C(=O)OCC)cc2S(=O)(=O)N1C (stereo not drawn) [Example 20]	< 100 nM	
CCCCC1CN(C2CCCOC2)c2cc(SC)c(O/C=C(\F)C(=O)OCC)cc2S(=O)(=O)N1C (stereo not drawn) [Example 21]	100 to 1000 nM	
CCCCC1CN(C2CCOC2)c2cc(SC)c(O/C=C/C(=O)O)cc2S(=O)(=O)N1C (stereo not drawn) [Example 22]	1000 to 5000 nM	
CCCCC1CN(C2CCOCC2)c2cc(SC)c(O/C=C/C(=O)O)cc2S(=O)(=O)N1C (stereo not drawn) [Example 23]	100 to 1000 nM	
CCCCC1CN(c2ncccn2)c2cc(SC)c(O/C=C(\F)C(=O)O)cc2S(=O)(=O)N1C (stereo not drawn) [Example 24]	100 to 1000 nM	
CCCCC1CN(C2CCCOC2)c2cc(SC)c(O/C=C(\F)C(=O)O)cc2S(=O)(=O)N1C (stereo not drawn) [Example 25]	< 100 nM	
CCCCC1CN(C2CCOCC2)c2cc(SC)c(O/C=C(\F)C(=O)O)cc2S(=O)(=O)N1C (stereo not drawn) [Example 26]	100 to 1000 nM	

SMILES	EC50 (Hepatitis B virus)	EC50
CC#CCN1CC(CCCC)N(C)S(=O)(=O)c2cc(O/C=C(\F)C(=O)O)c(SC)cc21 (stereo not drawn) [Example 27]	< 100 nM	
CCCCC1CN(Cc2ccccc2)c2cc(SC)c(O/C=C(\F)C(=O)O)cc2S(=O)(=O)N1C (stereo not drawn) [Example 28]	< 100 nM	
CCCCC1CN(C2CCC(F)CC2)c2cc(SC)c(O/C=C(\F)C(=O)OCC)cc2S(=O)(=O)N1C (stereo not drawn) [Example 29]	100 to 1000 nM	
CCCCC1CN(C2CCC(F)CC2)c2cc(SC)c(O/C=C(\F)C(=O)O)cc2S(=O)(=O)N1C (stereo not drawn) [Example 30]	< 100 nM	
CCCCC1CN(C2CCC(O)CC2)c2cc(SC)c(O/C=C(\F)C(=O)O)cc2S(=O)(=O)N1C (stereo not drawn) [Example 31]	100 to 1000 nM	
CCCCC1CN(C2CCCC2)c2cc(SC)c(O/C=C(\F)C(=O)O)cc2S(=O)(=O)N1C (stereo not drawn) [Example 32]	< 100 nM	
CCCCC1CN(Cc2cc(F)ccc2F)c2cc(SC)c(O/C=C(\F)C(=O)OCC)cc2S(=O)(=O)N1C (stereo not drawn) [Example 33]	< 100 nM	
CCCCC1CN(Cc2cc(F)ccc2F)c2cc(SC)c(O/C=C(\F)C(=O)O)cc2S(=O)(=O)N1C (stereo not drawn) [Example 34]	< 100 nM	
CCCCC1CN(CC2CCC(F)(F)CC2)c2cc(SC)c(O/C=C(\F)C(=O)OCC)cc2S(=O)(=O)N1C (stereo not drawn) [Example 35]	100 to 1000 nM	
CCCCC1CN(CC2CCC(F)(F)CC2)c2cc(SC)c(O/C=C(\F)C(=O)O)cc2S(=O)(=O)N1C (stereo not drawn) [Example 36]	< 100 nM	
CCCCC1CN(Cc2cccc(F)c2)c2cc(SC)c(O/C=C(\F)C(=O)OCC)cc2S(=O)(=O)N1C (stereo not drawn) [Example 37]	< 100 nM	
CCCCC1CN(Cc2cccc(SC)c2)c2cc(SC)c(O/C=C(\F)C(=O)OCC)cc2S(=O)(=O)N1C (stereo not drawn) [Example 38]	100 to 1000 nM	
CCCCC1CN(C(=O)c2ccccc2)c2cc(SC)c(O/C=C(\F)C(=O)OCC)cc2S(=O)(=O)N1C (stereo not drawn) [Example 39]	1000 to 5000 nM	
CCCCC1CN(Cc2cccc(F)c2)c2cc(SC)c(O/C=C(\F)C(=O)O)cc2S(=O)(=O)N1C (stereo not drawn) [Example 40]	< 100 nM	
CCCCC1CN(C(=O)c2ccccc2)c2cc(SC)c(O/C=C(\F)C(=O)O)cc2S(=O)(=O)N1C (stereo not drawn) [Example 41]	1000 to 5000 nM	
CCCCC1CN(Cc2ccc(F)c(F)c2)c2cc(SC)c(O/C=C(\F)C(=O)OCC)cc2S(=O)(=O)N1C (stereo not drawn) [Example 42]	100 to 1000 nM	
CCCCC1CN(Cc2ccc(F)c(F)c2)c2cc(SC)c(O/C=C(\F)C(=O)O)cc2S(=O)(=O)N1C (stereo not drawn) [Example 43]	< 100 nM	
CCCCC1CN(C(C)c2ccccc2)c2cc(SC)c(O/C=C(\F)C(=O)OCC)cc2S(=O)(=O)N1C (stereo not drawn) [Example 44]	100 to 1000 nM	
CCCCC1CN(C2CC3CCC2C3)c2cc(SC)c(O/C=C(\F)C(=O)O)cc2S(=O)(=O)N1C (stereo not drawn) [Example 45]	1000 to 5000 nM	
CCCCC1CN(C2CCNCC2)c2cc(SC)c(O/C=C(\F)C(=O)O)cc2S(=O)(=O)N1C (stereo not drawn) [Example 46]	1000 to 5000 nM	
CCCCC1CN(C2CCN(C)CC2)c2cc(SC)c(O/C=C(\F)C(=O)O)cc2S(=O)(=O)N1C (stereo not drawn) [Example 47]	1000 to 5000 nM	
CCCCC1CN(C2CCN(C(C)=O)CC2)c2cc(SC)c(O/C=C(\F)C(=O)O)cc2S(=O)(=O)N1C (stereo not drawn) [Example 48]	1000 to 5000 nM	
CCCCC1CN(c2nccs2)c2cc(SC)c(O/C=C(\F)C(=O)O)cc2S(=O)(=O)N1C (stereo not drawn) [Example 49]	100 to 1000 nM	
CCCCC1CN(C2CCOC2)c2cc(SC)c(O/C=C(\F)C(=O)O)cc2S(=O)(=O)N1C (stereo not drawn) [Example 50]	100 to 1000 nM	
CCCCC1CN(C2CCC(N)CC2)c2cc(SC)c(O/C=C(\F)C(=O)O)cc2S(=O)(=O)N1C (stereo not drawn) [Example 51]	1000 to 5000 nM	
CCCCC1CN(C(C)c2ccccc2)c2cc(SC)c(O/C=C(\F)C(=O)O)cc2S(=O)(=O)N1C (stereo not drawn) [Example 52]	< 100 nM	
CCCCC1CN(c2ccn(C)n2)c2cc(SC)c(O/C=C(\F)C(=O)O)cc2S(=O)(=O)N1C (stereo not drawn) [Example 53]	100 to 1000 nM	
